Reference: PMC11352961, “Peptide dendrimers transfecting CRISPR/Cas9 plasmid DNA: optimization and mechanism” (RSC Chemical Biology, 2024)
Bridge positions count the residues as written; N and C are the ends. Square brackets hold non-standard residues; d marks the D form. Side chains are listed from the residue outwards. Peptide text beside a SMILES is read from it. I, II: the chains in the order shown. * marks the point of attachment. Stearoyl = CCCCCCCCCCCCCCCCCC(=O)*

Legend:
HEK293 cells [1] = test: Cell viability by PrestoBlue assay after transfection, HEK cells; assay type: cell-based; settings: 4 h
HeLa cells = test: Cell viability by PrestoBlue assay after transfection, HeLa cells; assay type: cell-based; settings: 4 h
HEK293 cells [2] = assay type: cell-based; settings: 1 h
in vitro = settings: isolated enzyme proteinase k, pH 8

Compound	% viability HEK cells (HEK293 cells [1])	% viability HeLa cells (HeLa cells)	transfection of HEK cells with protease inhibition (HEK293 cells [2])	remaining at 1 h, 200 µM (in vitro)	remaining at 2 h, 200 µM (in vitro)	remaining at 3 h, 200 µM (in vitro)	remaining at 12 h, 200 µM (in vitro)	remaining at 24 h, 200 µM (in vitro)
CCCCCCCCCCCCCCCCCC(=O)NCCCC[C@H](NC(=O)[C@H](CCCCNC(=O)[C@H](CC(C)C)NC(=O)[C@H](CCCCN)NC(=O)[C@H](CCCCNC(=O)[C@H](CC(C)C)NC(=O)[C@H](CCCCN)NC(=O)[C@H](CCCCNC(=O)[C@H](CC(C)C)NC(=O)[C@@H](N)CCCCN)NC(=O)[C@H](CC(C)C)NC(=O)[C@@H](N)CCCCN)NC(=O)[C@H](CC(C)C)NC(=O)[C@H](CCCCN)NC(=O)[C@H](CCCCNC(=O)[C@H](CC(C)C)NC(=O)[C@@H](N)CCCCN)NC(=O)[C@H](CC(C)C)NC(=O)[C@@H](N)CCCCN)NC(=O)[C@H](CC(C)C)NC(=O)[C@H](CCCCN)NC(=O)[C@H](CCCCNC(=O)[C@H](CC(C)C)NC(=O)[C@H](CCCCN)NC(=O)[C@H](CCCCNC(=O)[C@H](CC(C)C)NC(=O)[C@@H](N)CCCCN)NC(=O)[C@H](CC(C)C)NC(=O)[C@@H](N)CCCCN)NC(=O)[C@H](CC(C)C)NC(=O)[C@H](CCCCN)NC(=O)[C@H](CCCCNC(=O)[C@H](CC(C)C)NC(=O)[C@@H](N)CCCCN)NC(=O)[C@H](CC(C)C)NC(=O)[C@@H](N)CCCCN)C(N)=O [Z1] (I: H-KLK([Leu-Lys])KLKKLKK(Stearoyl)-NH2 / II: H-KLK([Leu-Lys])KLKKL / III: H-KLK([Leu-Lys])KL / IV: H-KLK([Leu-Lys])KL; amide I:6-IV:C, I:9-II:C, II:6-III:C)	64 ± 7%	51 ± 6%	42%					
CCCCCCCCCCCCCCCCCC(=O)NCCCC[C@@H](NC(=O)[C@@H](CCCCNC(=O)[C@@H](CC(C)C)NC(=O)[C@@H](CCCCN)NC(=O)[C@@H](CCCCNC(=O)[C@@H](CC(C)C)NC(=O)[C@@H](CCCCN)NC(=O)[C@@H](CCCCNC(=O)[C@@H](CC(C)C)NC(=O)[C@H](N)CCCCN)NC(=O)[C@@H](CC(C)C)NC(=O)[C@H](N)CCCCN)NC(=O)[C@@H](CC(C)C)NC(=O)[C@@H](CCCCN)NC(=O)[C@@H](CCCCNC(=O)[C@@H](CC(C)C)NC(=O)[C@H](N)CCCCN)NC(=O)[C@@H](CC(C)C)NC(=O)[C@H](N)CCCCN)NC(=O)[C@@H](CC(C)C)NC(=O)[C@@H](CCCCN)NC(=O)[C@@H](CCCCNC(=O)[C@@H](CC(C)C)NC(=O)[C@@H](CCCCN)NC(=O)[C@@H](CCCCNC(=O)[C@@H](CC(C)C)NC(=O)[C@H](N)CCCCN)NC(=O)[C@@H](CC(C)C)NC(=O)[C@H](N)CCCCN)NC(=O)[C@@H](CC(C)C)NC(=O)[C@@H](CCCCN)NC(=O)[C@@H](CCCCNC(=O)[C@@H](CC(C)C)NC(=O)[C@H](N)CCCCN)NC(=O)[C@@H](CC(C)C)NC(=O)[C@H](N)CCCCN)C(N)=O [Z26] (I: H-[dK][dL][dK]([dL-dK])[dK][dL][dK][dK][dL][dK][dK](Stearoyl)-NH2 / II: H-[dK][dL][dK]([dL-dK])[dK][dL][dK][dK][dL] / III: H-[dK][dL][dK]([dL-dK])[dK][dL] / IV: H-[dK][dL][dK]([dL-dK])[dK][dL]; amide I:6-IV:C, I:9-II:C, II:6-III:C)	91.3 ± 0.2%	91 ± 5%	51%					
CCCCCCCCCCCCCCCCCC(=O)NCCCC[C@@H](NC(=O)[C@@H](CCCCNC(=O)[C@@H](CC(C)C)NC(=O)[C@@H](CCCNC(=N)N)NC(=O)[C@@H](CCCCNC(=O)[C@@H](CC(C)C)NC(=O)[C@@H](CCCNC(=N)N)NC(=O)[C@@H](CCCCNC(=O)[C@@H](CC(C)C)NC(=O)[C@H](N)CCCNC(=N)N)NC(=O)[C@@H](CC(C)C)NC(=O)[C@H](N)CCCNC(=N)N)NC(=O)[C@@H](CC(C)C)NC(=O)[C@@H](CCCNC(=N)N)NC(=O)[C@@H](CCCCNC(=O)[C@@H](CC(C)C)NC(=O)[C@H](N)CCCNC(=N)N)NC(=O)[C@@H](CC(C)C)NC(=O)[C@H](N)CCCNC(=N)N)NC(=O)[C@@H](CC(C)C)NC(=O)[C@@H](CCCNC(=N)N)NC(=O)[C@@H](CCCCNC(=O)[C@@H](CC(C)C)NC(=O)[C@@H](CCCNC(=N)N)NC(=O)[C@@H](CCCCNC(=O)[C@@H](CC(C)C)NC(=O)[C@H](N)CCCNC(=N)N)NC(=O)[C@@H](CC(C)C)NC(=O)[C@H](N)CCCNC(=N)N)NC(=O)[C@@H](CC(C)C)NC(=O)[C@@H](CCCNC(=N)N)NC(=O)[C@@H](CCCCNC(=O)[C@@H](CC(C)C)NC(=O)[C@H](N)CCCNC(=N)N)NC(=O)[C@@H](CC(C)C)NC(=O)[C@H](N)CCCNC(=N)N)C(N)=O [Z34] (I: H-[dR][dL][dK]([dL-dR])[dR][dL][dK][dR][dL][dK][dK](Stearoyl)-NH2 / II: H-[dR][dL][dK]([dL-dR])[dR][dL][dK][dR][dL] / III: H-[dR][dL][dK]([dL-dR])[dR][dL] / IV: H-[dR][dL][dK]([dL-dR])[dR][dL]; amide I:6-IV:C, I:9-II:C, II:6-III:C)		94 ± 6%	69%	100%	97.7%	95.4%	91.8%	101%
CCCCCCCCCCCCCCCCCC(=O)NCCCC[C@@H](NC(=O)[C@@H](CCCCNC(=O)[C@@H](CC(C)C)NC(=O)[C@@H](CCCNC(=N)N)NC(=O)[C@@H](CCCCNC(=O)[C@@H](CC(C)C)NC(=O)[C@@H](CCCNC(=N)N)NC(=O)[C@@H](CCCCNC(=O)[C@@H](CC(C)C)NC(=O)[C@H](N)CCCNC(=N)N)NC(=O)[C@@H](CC(C)C)NC(=O)[C@H](N)CCCNC(=N)N)NC(=O)[C@@H](CC(C)C)NC(=O)[C@@H](CCCNC(=N)N)NC(=O)[C@@H](CCCCNC(=O)[C@@H](CC(C)C)NC(=O)[C@H](N)CCCNC(=N)N)NC(=O)[C@@H](CC(C)C)NC(=O)[C@H](N)CCCNC(=N)N)NC(=O)[C@@H](CC(C)C)NC(=O)[C@@H](CCCNC(=N)N)NC(=O)[C@@H](CCCCNC(=O)[C@@H](CC(C)C)NC(=O)[C@@H](CCCNC(=N)N)NC(=O)[C@@H](CCCCNC(=O)[C@@H](CC(C)C)NC(=O)[C@H](N)CCCNC(=N)N)NC(=O)[C@@H](CC(C)C)NC(=O)[C@H](N)CCCNC(=N)N)NC(=O)[C@@H](CC(C)C)NC(=O)[C@@H](CCCNC(=N)N)NC(=O)[C@@H](CCCCNC(=O)[C@@H](CC(C)C)NC(=O)[C@H](N)CCCNC(=N)N)NC(=O)[C@@H](CC(C)C)NC(=O)[C@H](N)CCCNC(=N)N)C(=O)N[C@H](C)C(N)=O [Z35] (I: H-[dR][dL][dK]([dL-dR])[dR][dL][dK][dR][dL][dK][dK](Stearoyl)[dA]-NH2 / II: H-[dR][dL][dK]([dL-dR])[dR][dL][dK][dR][dL] / III: H-[dR][dL][dK]([dL-dR])[dR][dL] / IV: H-[dR][dL][dK]([dL-dR])[dR][dL]; amide I:6-IV:C, I:9-II:C, II:6-III:C)	72 ± 5%	94 ± 6%						
CCCCCCCCCCCCCCCCCC(=O)NCCCC[C@@H](NC(=O)[C@@H](CCCCNC(=O)[C@@H](CC(C)C)NC(=O)[C@@H](CC(C)C)NC(=O)[C@@H](CCCCNC(=O)[C@@H](CC(C)C)NC(=O)[C@@H](CCCNC(=N)N)NC(=O)[C@@H](CCCCNC(=O)[C@@H](CC(C)C)NC(=O)[C@H](N)CCCNC(=N)N)NC(=O)[C@@H](CC(C)C)NC(=O)[C@H](N)CCCNC(=N)N)NC(=O)[C@@H](CC(C)C)NC(=O)[C@@H](CCCNC(=N)N)NC(=O)[C@@H](CCCCNC(=O)[C@@H](CC(C)C)NC(=O)[C@H](N)CCCNC(=N)N)NC(=O)[C@@H](CC(C)C)NC(=O)[C@H](N)CCCNC(=N)N)NC(=O)[C@@H](CC(C)C)NC(=O)[C@@H](CC(C)C)NC(=O)[C@@H](CCCCNC(=O)[C@@H](CC(C)C)NC(=O)[C@@H](CCCNC(=N)N)NC(=O)[C@@H](CCCCNC(=O)[C@@H](CC(C)C)NC(=O)[C@H](N)CCCNC(=N)N)NC(=O)[C@@H](CC(C)C)NC(=O)[C@H](N)CCCNC(=N)N)NC(=O)[C@@H](CC(C)C)NC(=O)[C@@H](CCCNC(=N)N)NC(=O)[C@@H](CCCCNC(=O)[C@@H](CC(C)C)NC(=O)[C@H](N)CCCNC(=N)N)NC(=O)[C@@H](CC(C)C)NC(=O)[C@H](N)CCCNC(=N)N)C(N)=O [Z36] (I: H-[dR][dL][dK]([dL-dR])[dR][dL][dK][dL][dL][dK][dK](Stearoyl)-NH2 / II: H-[dR][dL][dK]([dL-dR])[dR][dL][dK][dL][dL] / III: H-[dR][dL][dK]([dL-dR])[dR][dL] / IV: H-[dR][dL][dK]([dL-dR])[dR][dL]; amide I:6-IV:C, I:9-II:C, II:6-III:C)	87 ± 2%	92 ± 6%						
CCCCCCCCCCCCCCCCCC(=O)NCCCC[C@@H](NC(=O)[C@@H](CCCCNC(=O)[C@@H](CC(C)C)NC(=O)[C@@H](CC(C)C)NC(=O)[C@@H](CCCCNC(=O)[C@@H](CC(C)C)NC(=O)[C@@H](CC(C)C)NC(=O)[C@@H](CCCCNC(=O)[C@@H](CC(C)C)NC(=O)[C@H](N)CCCNC(=N)N)NC(=O)[C@@H](CC(C)C)NC(=O)[C@H](N)CCCNC(=N)N)NC(=O)[C@@H](CC(C)C)NC(=O)[C@@H](CC(C)C)NC(=O)[C@@H](CCCCNC(=O)[C@@H](CC(C)C)NC(=O)[C@H](N)CCCNC(=N)N)NC(=O)[C@@H](CC(C)C)NC(=O)[C@H](N)CCCNC(=N)N)NC(=O)[C@@H](CC(C)C)NC(=O)[C@@H](CC(C)C)NC(=O)[C@@H](CCCCNC(=O)[C@@H](CC(C)C)NC(=O)[C@@H](CC(C)C)NC(=O)[C@@H](CCCCNC(=O)[C@@H](CC(C)C)NC(=O)[C@H](N)CCCNC(=N)N)NC(=O)[C@@H](CC(C)C)NC(=O)[C@H](N)CCCNC(=N)N)NC(=O)[C@@H](CC(C)C)NC(=O)[C@@H](CC(C)C)NC(=O)[C@@H](CCCCNC(=O)[C@@H](CC(C)C)NC(=O)[C@H](N)CCCNC(=N)N)NC(=O)[C@@H](CC(C)C)NC(=O)[C@H](N)CCCNC(=N)N)C(N)=O [Z37] (I: H-[dR][dL][dK]([dL-dR])[dL][dL][dK][dL][dL][dK][dK](Stearoyl)-NH2 / II: H-[dR][dL][dK]([dL-dR])[dL][dL][dK][dL][dL] / III: H-[dR][dL][dK]([dL-dR])[dL][dL] / IV: H-[dR][dL][dK]([dL-dR])[dL][dL]; amide I:6-IV:C, I:9-II:C, II:6-III:C)	103 ± 1%	95 ± 5%						
